Measured values as given in ChEMBL document CHEMBL4834415, “Distinct Lugdunins from a New Efficient Synthesis and Broad Exploitation of Its MRSA-Antimicrobial Structure” (2021).
In brackets after ≈: the same amount, converted by molar mass.

Test system: Staphylococcus aureus
Experiment: Antibacterial activity against methicillin-resistant Staphylococcus aureus USA300 LAC assessed as reduction in bacterial growth incubated for 21 hrs by broth dilution method
Assay type: functional

Compound | MIC
CC(C)C[C@H]1NC(=O)[C@@H]2CSC(N2)[C@H](C(C)C)NC(=O)[C@@H](C(C)C)NC(=O)[C@H](C(C)C)NC(=O)[C@@H](C(C)C)NC(=O)[C@H](Cc2c[nH]c3ccccc23)NC1=O | 128 µM (≈ 100 µg/mL)
CC(C)C[C@H]1NC(=O)[C@H](Cc2cscn2)NC(=O)[C@@H](C(C)C)NC(=O)[C@@H]2CSC(N2)[C@H](C(C)C)NC(=O)[C@@H](C(C)C)NC(=O)[C@H](C(C)C)NC1=O | 133 µM (≈ 100 µg/mL)
CC(C)CC[C@H]1NC(=O)[C@@H]2CSC(N2)[C@H](C(C)C)NC(=O)[C@@H](C(C)C)NC(=O)[C@H](C(C)C)NC(=O)[C@@H](CC(C)C)NC(=O)[C@H](Cc2c[nH]c3ccccc23)NC1=O | 61.7 µM (≈ 50 µg/mL)
CC(C)C[C@H]1NC(=O)[C@H](Cc2ccc(Cl)cc2)NC(=O)[C@@H](C(C)C)NC(=O)[C@@H]2CSC(N2)[C@H](C(C)C)NC(=O)[C@@H](C(C)C)NC(=O)[C@H](C(C)C)NC1=O | 129 µM (≈ 100 µg/mL)
CC(C)C[C@H]1NC(=O)[C@H](Cc2cn(C)c3ccccc23)NC(=O)[C@@H](C(C)C)NC(=O)[C@@H]2CSC(N2)[C@H](C(C)C)NC(=O)[C@@H](C(C)C)NC(=O)[C@H](C(C)C)NC1=O | 15.7 µM (≈ 12.5 µg/mL)
CC(C)C[C@H]1NC(=O)[C@H](C(c2ccccc2)c2ccccc2)NC(=O)[C@@H](C(C)C)NC(=O)[C@@H]2CSC(N2)[C@H](C(C)C)NC(=O)[C@@H](C(C)C)NC(=O)[C@H](C(C)C)NC1=O | 61.1 µM (≈ 50.1 µg/mL)
C#CC[C@@H]1NC(=O)[C@@H](C(C)C)NC(=O)[C@@H]2CSC(N2)[C@H](C(C)C)NC(=O)[C@@H](C(C)C)NC(=O)[C@H](C(C)C)NC(=O)[C@@H](CC(C)C)NC1=O | 72.4 µM (≈ 50.1 µg/mL)
CC(C)C[C@H]1NC(=O)[C@H](Cc2ccc(O)cc2)NC(=O)[C@@H](C(C)C)NC(=O)[C@@H]2CSC(N2)[C@H](C(C)C)NC(=O)[C@@H](C(C)C)NC(=O)[C@H](C(C)C)NC1=O | 132 µM (≈ 100 µg/mL)
CC(C)C[C@H]1NC(=O)[C@H](Cc2c[nH]c3ccccc23)NC(=O)[C@@H](Cc2c[nH]c3ccccc23)NC(=O)[C@@H]2CSC(N2)[C@H](C(C)C)NC(=O)[C@@H](C(C)C)NC(=O)[C@H](C(C)C)NC1=O | 28.8 µM (≈ 25.1 µg/mL)
CC(C)C[C@H]1NC(=O)[C@H](Cc2c3ccccc3cc3ccccc23)NC(=O)[C@@H](C(C)C)NC(=O)[C@@H]2CSC(N2)[C@H](C(C)C)NC(=O)[C@@H](C(C)C)NC(=O)[C@H](C(C)C)NC1=O | 7.4 µM (≈ 6.25 µg/mL)
CC(C)C[C@H]1NC(=O)[C@H](c2ccccc2)NC(=O)[C@@H](C(C)C)NC(=O)[C@@H]2CSC(N2)[C@H](C(C)C)NC(=O)[C@@H](C(C)C)NC(=O)[C@H](C(C)C)NC1=O | 137 µM (≈ 100 µg/mL)
CCC[C@H]1NC(=O)[C@@H]2CSC(N2)[C@H](C(C)C)NC(=O)[C@@H](C(C)C)NC(=O)[C@H](C(C)C)NC(=O)[C@@H](CC(C)C)NC(=O)[C@H](Cc2c[nH]c3ccccc23)NC1=O | 16 µM (≈ 12.5 µg/mL)
CC(C)C[C@H]1NC(=O)[C@H](Cc2ccc(O)c(O)c2)NC(=O)[C@@H](C(C)C)NC(=O)[C@@H]2CSC(N2)[C@H](C(C)C)NC(=O)[C@@H](C(C)C)NC(=O)[C@H](C(C)C)NC1=O | 130 µM (≈ 101 µg/mL)
CC(C)C[C@H]1NC(=O)[C@H](Cc2ccncc2)NC(=O)[C@@H](C(C)C)NC(=O)[C@@H]2CSC(N2)[C@H](C(C)C)NC(=O)[C@@H](C(C)C)NC(=O)[C@H](C(C)C)NC1=O | 134 µM (≈ 100 µg/mL)
CC(C)C[C@H]1NC(=O)[C@H](Cc2cccc([N+](=O)[O-])c2)NC(=O)[C@@H](C(C)C)NC(=O)[C@@H]2CSC(N2)[C@H](C(C)C)NC(=O)[C@@H](C(C)C)NC(=O)[C@H](C(C)C)NC1=O | 127 µM (≈ 100 µg/mL)
CC(C)C[C@H]1NC(=O)[C@H](Cc2nc3ccccc3s2)NC(=O)[C@@H](C(C)C)NC(=O)[C@@H]2CSC(N2)[C@H](C(C)C)NC(=O)[C@@H](C(C)C)NC(=O)[C@H](C(C)C)NC1=O | 31.3 µM (≈ 25.1 µg/mL)

Compound | MIC
CC(C)C[C@H]1NC(=O)[C@H](Cc2ccco2)NC(=O)[C@@H](C(C)C)NC(=O)[C@@H]2CSC(N2)[C@H](C(C)C)NC(=O)[C@@H](C(C)C)NC(=O)[C@H](C(C)C)NC1=O | 136 µM (≈ 100 µg/mL)
CC(C)C[C@H]1NC(=O)[C@H](Cc2c[nH]c3ccccc23)NC(=O)[C@@H](C(C)(C)C)NC(=O)[C@@H]2CSC(N2)[C@H](C(C)C)NC(=O)[C@@H](C(C)C)NC(=O)[C@H](C(C)C)NC1=O | 31.4 µM (≈ 25 µg/mL)
CC(C)C[C@H]1NC(=O)[C@H](Cc2c[nH]c3ccccc23)NC(=O)[C@@H](C(C)C)NC(=O)[C@@H]2CSC(N2)[C@H](C(C)C)NC(=O)[C@@H](Cc2c[nH]c3ccccc23)NC(=O)[C@H](C(C)C)NC1=O | 1.8 µM (≈ 1.57 µg/mL)
CC(C)C[C@H]1NC(=O)[C@H](Cc2c[nH]c3ccccc23)NC(=O)[C@@H](Cc2ccccc2)NC(=O)[C@@H]2CSC(N2)[C@H](C(C)C)NC(=O)[C@@H](C(C)C)NC(=O)[C@H](C(C)C)NC1=O | 120 µM (≈ 100 µg/mL)
CC(C)C[C@H]1NC(=O)[C@H](Cc2ccc(C(=O)c3ccccc3)cc2)NC(=O)[C@@H](C(C)C)NC(=O)[C@@H]2CSC(N2)[C@H](C(C)C)NC(=O)[C@@H](C(C)C)NC(=O)[C@H](C(C)C)NC1=O | 59 µM (≈ 50 µg/mL)
CC(C)C[C@H]1NC(=O)[C@H](Cc2cccs2)NC(=O)[C@@H](C(C)C)NC(=O)[C@@H]2CSC(N2)[C@H](C(C)C)NC(=O)[C@@H](C(C)C)NC(=O)[C@H](C(C)C)NC1=O | 134 µM (≈ 100 µg/mL)
CC(C)C[C@H]1NC(=O)[C@H](Cc2cccc3ccccc23)NC(=O)[C@@H](C(C)C)NC(=O)[C@@H]2CSC(N2)[C@H](C(C)C)NC(=O)[C@@H](C(C)C)NC(=O)[C@H](C(C)C)NC1=O | 7.9 µM (≈ 6.27 µg/mL)
CC(C)C[C@H]1NC(=O)[C@@H]2Cc3ccccc3CN2C(=O)[C@@H](C(C)C)NC(=O)[C@@H]2CSC(N2)[C@H](C(C)C)NC(=O)[C@@H](C(C)C)NC(=O)[C@H](C(C)C)NC1=O | 132 µM (≈ 100 µg/mL)
CC(C)C[C@H]1NC(=O)[C@@H]2CSC(N2)[C@H](C(C)C)NC(=O)[C@@H](C(C)C)NC(=O)[C@H](C(C)C)NC(=O)[C@@H](CC(C)C)NC(=O)[C@H](Cc2c[nH]c3ccccc23)NC1=O | 15.7 µM (≈ 12.5 µg/mL)
CC(C)C[C@H]1NC(=O)[C@H](Cc2csc3ccccc23)NC(=O)[C@@H](C(C)C)NC(=O)[C@@H]2CSC(N2)[C@H](C(C)C)NC(=O)[C@@H](C(C)C)NC(=O)[C@H](C(C)C)NC1=O | 15.6 µM (≈ 12.5 µg/mL)
CC[C@@H](C)[C@H]1NC(=O)[C@@H]2CSC(N2)[C@H](C(C)C)NC(=O)[C@@H](C(C)C)NC(=O)[C@H](C(C)C)NC(=O)[C@@H](CC(C)C)NC(=O)[C@H](Cc2c[nH]c3ccccc23)NC1=O | 31.4 µM (≈ 25 µg/mL)
CC[C@H](C)[C@H]1NC(=O)[C@@H]2CSC(N2)[C@H](C(C)C)NC(=O)[C@@H](C(C)C)NC(=O)[C@H](C(C)C)NC(=O)[C@@H](CC(C)C)NC(=O)[C@H](Cc2c[nH]c3ccccc23)NC1=O | 7.9 µM (≈ 6.3 µg/mL)
CC(C)C[C@H]1NC(=O)[C@H](Cc2ccccc2)NC(=O)[C@@H](C(C)C)NC(=O)[C@@H]2CSC(N2)[C@H](C(C)C)NC(=O)[C@@H](C(C)C)NC(=O)[C@H](C(C)C)NC1=O | 16.8 µM (≈ 12.5 µg/mL)
CC(C)C[C@H]1NC(=O)[C@H](Cc2c[nH]cn2)NC(=O)[C@@H](C(C)C)NC(=O)[C@@H]2CSC(N2)[C@H](C(C)C)NC(=O)[C@@H](C(C)C)NC(=O)[C@H](C(C)C)NC1=O | 136 µM (≈ 100 µg/mL)
CC(C)C[C@H]1NC(=O)[C@H](Cc2c(F)c(F)c(F)c(F)c2F)NC(=O)[C@@H](C(C)C)NC(=O)[C@@H]2CSC(N2)[C@H](C(C)C)NC(=O)[C@@H](C(C)C)NC(=O)[C@H](C(C)C)NC1=O | 30 µM (≈ 25 µg/mL)
CC(C)C[C@H]1NC(=O)[C@H](Cc2ccc(-c3ccccc3)cc2)NC(=O)[C@@H](C(C)C)NC(=O)[C@@H]2CSC(N2)[C@H](C(C)C)NC(=O)[C@@H](C(C)C)NC(=O)[C@H](C(C)C)NC1=O | 30.5 µM (≈ 25 µg/mL)
